# According to patent publication US9682141B2, “Combination of kinase inhibitors and uses thereof” (INTELLIKINE LLC, priority 2011, dated 2017):
# Read-outs that look alike come from different tables or passages of the source.
# Legend:
# Assay type in all cases: biochemical
# [1] = molecular target: PI3K δ (Homo sapiens (Human), UniProt O00329); assay: PI 3-Kinase (human) HTRF assay, p110δ/p85α
# [2] = molecular target: PI3K α (Homo sapiens (Human), UniProt P42336); assay: PI 3-Kinase (human) HTRF assay, p110α/p85α
# Sequence of PI3K α (P42336 whole entry): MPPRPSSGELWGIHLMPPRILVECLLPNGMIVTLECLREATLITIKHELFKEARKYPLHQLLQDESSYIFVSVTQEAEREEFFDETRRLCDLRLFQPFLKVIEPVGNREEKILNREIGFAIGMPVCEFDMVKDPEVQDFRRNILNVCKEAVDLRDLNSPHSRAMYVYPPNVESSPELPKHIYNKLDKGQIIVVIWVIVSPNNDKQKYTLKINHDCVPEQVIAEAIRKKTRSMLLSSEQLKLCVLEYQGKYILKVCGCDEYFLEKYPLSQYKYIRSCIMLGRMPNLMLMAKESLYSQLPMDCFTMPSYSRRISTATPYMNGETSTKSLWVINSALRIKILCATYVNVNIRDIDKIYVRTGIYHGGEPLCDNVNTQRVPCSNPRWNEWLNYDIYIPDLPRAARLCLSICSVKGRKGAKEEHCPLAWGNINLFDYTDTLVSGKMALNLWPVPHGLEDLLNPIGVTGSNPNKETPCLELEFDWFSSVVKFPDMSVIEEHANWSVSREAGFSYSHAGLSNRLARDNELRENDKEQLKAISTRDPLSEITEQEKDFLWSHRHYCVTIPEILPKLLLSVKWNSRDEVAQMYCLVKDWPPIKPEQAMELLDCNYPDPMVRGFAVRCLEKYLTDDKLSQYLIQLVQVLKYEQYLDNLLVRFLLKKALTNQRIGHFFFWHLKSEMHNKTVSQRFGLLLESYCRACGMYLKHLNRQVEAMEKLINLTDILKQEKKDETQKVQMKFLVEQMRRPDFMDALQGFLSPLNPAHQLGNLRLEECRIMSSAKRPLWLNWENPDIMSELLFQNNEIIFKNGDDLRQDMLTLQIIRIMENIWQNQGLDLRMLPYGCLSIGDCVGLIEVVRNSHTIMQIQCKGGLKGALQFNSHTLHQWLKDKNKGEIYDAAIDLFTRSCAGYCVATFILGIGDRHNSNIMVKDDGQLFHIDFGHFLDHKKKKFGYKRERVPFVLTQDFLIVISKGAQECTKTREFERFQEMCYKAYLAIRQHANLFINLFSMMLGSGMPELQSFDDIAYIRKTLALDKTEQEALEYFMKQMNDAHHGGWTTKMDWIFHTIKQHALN
# Sequence of PI3K α (P27986 whole entry partner): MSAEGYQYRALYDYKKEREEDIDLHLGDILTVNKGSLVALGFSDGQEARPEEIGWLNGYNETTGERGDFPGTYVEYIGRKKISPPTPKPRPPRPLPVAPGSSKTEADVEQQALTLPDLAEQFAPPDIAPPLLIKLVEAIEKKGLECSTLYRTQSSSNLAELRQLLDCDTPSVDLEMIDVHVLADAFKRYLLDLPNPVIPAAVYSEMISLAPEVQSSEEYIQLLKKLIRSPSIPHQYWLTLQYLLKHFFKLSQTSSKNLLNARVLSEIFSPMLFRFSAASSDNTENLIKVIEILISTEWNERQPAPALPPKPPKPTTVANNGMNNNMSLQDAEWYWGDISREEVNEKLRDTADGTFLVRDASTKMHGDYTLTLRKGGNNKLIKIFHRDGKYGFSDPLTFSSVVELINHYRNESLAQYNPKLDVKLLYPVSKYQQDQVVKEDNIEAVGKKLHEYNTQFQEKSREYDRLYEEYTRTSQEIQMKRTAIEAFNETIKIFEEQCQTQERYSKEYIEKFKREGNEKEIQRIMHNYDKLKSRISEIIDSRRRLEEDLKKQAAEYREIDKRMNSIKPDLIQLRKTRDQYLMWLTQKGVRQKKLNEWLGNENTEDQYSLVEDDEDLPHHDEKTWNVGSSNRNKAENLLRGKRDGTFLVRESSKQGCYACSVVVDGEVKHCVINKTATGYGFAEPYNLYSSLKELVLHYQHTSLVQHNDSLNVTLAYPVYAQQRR
# [3] = molecular target: PI3K γ (Homo sapiens (Human), UniProt P48736); assay: PI 3-Kinase (human) HTRF assay, p110γ
# [4] = molecular target: PI3K β (Homo sapiens (Human), UniProt P42338); assay: PI 3-Kinase (human) HTRF assay, p110β/p85α
# Sequence of PI3K β (P42338 whole entry): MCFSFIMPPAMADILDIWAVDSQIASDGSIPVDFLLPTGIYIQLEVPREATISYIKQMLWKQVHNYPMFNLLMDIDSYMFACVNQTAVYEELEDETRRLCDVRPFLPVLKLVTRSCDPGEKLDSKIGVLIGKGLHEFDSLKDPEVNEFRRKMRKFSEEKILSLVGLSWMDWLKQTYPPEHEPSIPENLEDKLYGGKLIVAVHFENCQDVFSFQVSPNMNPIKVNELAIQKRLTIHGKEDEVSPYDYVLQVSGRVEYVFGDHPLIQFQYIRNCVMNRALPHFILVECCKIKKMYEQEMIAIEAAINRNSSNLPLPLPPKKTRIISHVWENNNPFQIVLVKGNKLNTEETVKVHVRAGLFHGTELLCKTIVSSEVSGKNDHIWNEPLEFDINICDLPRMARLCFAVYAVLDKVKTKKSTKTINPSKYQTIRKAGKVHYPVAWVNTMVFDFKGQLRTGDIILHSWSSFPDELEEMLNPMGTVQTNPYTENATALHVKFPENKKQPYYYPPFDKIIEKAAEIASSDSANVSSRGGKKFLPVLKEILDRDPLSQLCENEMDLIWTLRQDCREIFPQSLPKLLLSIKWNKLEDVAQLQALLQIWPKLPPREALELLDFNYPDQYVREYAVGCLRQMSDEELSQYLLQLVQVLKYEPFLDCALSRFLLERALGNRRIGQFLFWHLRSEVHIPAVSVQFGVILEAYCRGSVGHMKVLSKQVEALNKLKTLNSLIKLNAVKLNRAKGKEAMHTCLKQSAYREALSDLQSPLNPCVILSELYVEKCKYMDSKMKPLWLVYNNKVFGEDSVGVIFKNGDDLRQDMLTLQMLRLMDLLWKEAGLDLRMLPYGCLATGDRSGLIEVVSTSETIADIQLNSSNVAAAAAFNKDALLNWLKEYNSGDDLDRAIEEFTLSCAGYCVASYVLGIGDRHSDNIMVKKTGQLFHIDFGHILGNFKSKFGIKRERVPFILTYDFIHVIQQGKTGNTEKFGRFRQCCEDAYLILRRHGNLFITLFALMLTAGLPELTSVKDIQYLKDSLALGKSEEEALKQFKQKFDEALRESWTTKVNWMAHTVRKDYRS
# Sequence of PI3K β (P27986 whole entry partner): as the sequence (P27986 whole entry partner) above
# [5] = PI 3-Kinase (human) HTRF assay, p110δ/p85α; details: read-out: PI3K γ IC50
# Sequence of PI3K δ (O00329 whole entry): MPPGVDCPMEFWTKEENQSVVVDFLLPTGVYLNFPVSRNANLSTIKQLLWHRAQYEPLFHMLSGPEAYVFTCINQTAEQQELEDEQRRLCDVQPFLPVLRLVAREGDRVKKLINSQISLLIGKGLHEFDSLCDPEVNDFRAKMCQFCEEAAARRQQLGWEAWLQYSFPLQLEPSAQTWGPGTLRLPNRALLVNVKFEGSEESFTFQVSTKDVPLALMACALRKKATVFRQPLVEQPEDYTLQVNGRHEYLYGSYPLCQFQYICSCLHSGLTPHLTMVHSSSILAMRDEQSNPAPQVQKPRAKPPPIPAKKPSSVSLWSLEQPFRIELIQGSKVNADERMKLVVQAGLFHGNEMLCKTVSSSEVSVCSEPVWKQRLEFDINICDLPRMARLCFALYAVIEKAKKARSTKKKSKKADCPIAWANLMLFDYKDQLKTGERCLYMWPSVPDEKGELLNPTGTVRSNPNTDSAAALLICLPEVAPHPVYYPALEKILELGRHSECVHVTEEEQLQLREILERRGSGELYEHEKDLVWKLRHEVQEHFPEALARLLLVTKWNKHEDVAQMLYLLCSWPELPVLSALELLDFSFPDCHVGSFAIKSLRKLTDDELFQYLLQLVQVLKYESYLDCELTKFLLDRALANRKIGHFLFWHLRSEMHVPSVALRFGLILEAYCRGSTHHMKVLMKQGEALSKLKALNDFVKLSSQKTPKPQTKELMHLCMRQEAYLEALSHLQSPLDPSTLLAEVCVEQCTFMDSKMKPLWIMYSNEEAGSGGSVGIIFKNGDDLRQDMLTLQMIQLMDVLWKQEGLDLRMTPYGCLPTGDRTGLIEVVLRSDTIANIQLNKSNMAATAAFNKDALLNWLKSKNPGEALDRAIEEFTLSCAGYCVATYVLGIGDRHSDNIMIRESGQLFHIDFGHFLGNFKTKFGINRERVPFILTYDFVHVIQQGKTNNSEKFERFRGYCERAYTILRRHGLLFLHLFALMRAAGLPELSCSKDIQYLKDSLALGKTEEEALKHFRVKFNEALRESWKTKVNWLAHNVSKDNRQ
# Sequence of PI3K δ (P27986 whole entry partner): as the sequence (P27986 whole entry partner) above
IC50 [1],IC50 [2],IC50 ([3]; read-out: PI3K γ IC50),IC50 [4],IC50 [5],IC50 ([3]; read-out: PI3K δ IC50),SMILES
< 100 nM,< 100 nM,< 100 nM,< 100 nM,–,–,Nc1nc2cc(-c3ccc4ncc(-c5cccnc5)n4n3)ccc2o1
> 10000 nM,> 10000 nM,> 10000 nM,> 10000 nM,–,–,Nc1nc2cc(-c3cnc4ncc(-c5ccncc5)n4c3)ccc2o1
> 10000 nM,< 10000 nM,> 10000 nM,> 10000 nM,–,–,Nc1nc2ccc(-c3ccc4ncn(C5CCOCC5)c(=O)c4c3)cc2o1
< 10000 nM,< 1000 nM,< 1000 nM,< 10000 nM,–,–,Nc1nc2cc(-c3cn4c(-c5cn[nH]c5)cnc4cn3)ccc2o1
< 100 nM,< 100 nM,< 100 nM,< 100 nM,–,–,Nc1nc2cc(-c3ccc4nccc(-c5ccncc5)c4c3)ccc2s1
< 1000 nM,< 100 nM,< 100 nM,< 10000 nM,–,–,Nc1nc2cc(-c3ccc4ncc(-c5ccncc5)nc4c3)ccc2o1
> 10000 nM,< 1000 nM,> 10000 nM,< 10000 nM,–,–,CCN1CCC(n2cnc3ccc(-c4ccc5oc(N)nc5c4)cc3c2=O)CC1
< 1000 nM,< 100 nM,< 100 nM,< 1000 nM,–,–,Nc1nc2cc(-c3ccc4ncc(-c5cn[nH]c5)nc4c3)ccc2o1
> 10000 nM,< 10000 nM,> 10000 nM,> 10000 nM,–,–,CN1CCN(c2nc3cc(-c4ccc5oc(N)nc5c4)ccc3c(=O)n2C)CC1
< 100 nM,< 100 nM,< 1000 nM,< 1000 nM,–,–,CN1CCC(Nc2cnc3ccc(-c4ccc5oc(N)nc5c4)cc3n2)CC1
< 100 nM,< 100 nM,< 100 nM,< 10000 nM,–,–,Nc1nc2cc(-c3ccc4ncc(C(=O)NC5CCOCC5)n4c3)ccc2o1
< 1000 nM,< 100 nM,< 100 nM,< 100 nM,–,–,CC(C)N1CCN(c2cnc3ccc(-c4ccc5oc(N)nc5c4)cc3n2)CC1
< 1000 nM,< 100 nM,< 100 nM,< 1000 nM,–,–,CS(=O)(=O)N1CCN(c2cnc3ccc(-c4ccc5oc(N)nc5c4)cc3n2)CC1
–,< 100 nM,–,> 10000 nM,< 10000 nM,< 100 nM,Nc1nc2cc(-c3ccc4ncc(C(=O)N5CC[C@@H](F)C5)n4c3)ccc2o1
–,< 100 nM,–,> 10000 nM,< 10000 nM,< 1000 nM,Nc1nc2cc(-c3ccc4ncc(C(=O)N5CC[C@@H](n6cccn6)C5)n4c3)ccc2o1
–,< 100 nM,–,< 10000 nM,< 10000 nM,< 1000 nM,C[C@@H]1CCCN1C(=O)c1cnc2ccc(-c3ccc4oc(N)nc4c3)cn12
–,< 100 nM,–,> 10000 nM,< 10000 nM,< 1000 nM,C[C@H]1CCCN1C(=O)c1cnc2ccc(-c3ccc4oc(N)nc4c3)cn12
–,< 1000 nM,–,> 10000 nM,> 10000 nM,> 10000 nM,Nc1nc2cccc(-c3ccc4ncc(C(=O)N5CCOCC5)n4c3)c2o1
–,< 10000 nM,–,> 10000 nM,> 10000 nM,> 10000 nM,Nc1nc2cccc(-c3ccc4ncc(C(=O)N5CCOCC5)n4c3)c2s1
–,< 10000 nM,–,> 10000 nM,> 10000 nM,< 10000 nM,CNc1noc2cc(-c3ccc4ncc(C(=O)N5CCOCC5)n4c3)ccc12
–,> 10000 nM,–,> 10000 nM,> 10000 nM,> 10000 nM,Nc1n[nH]c2c(-c3ccc4ncc(C(=O)N5CCOCC5)n4c3)cccc12
< 1000 nM,–,< 100 nM,< 1000 nM,–,–,Nc1nc2cccc(-c3ccc4nccc(-c5ccncc5)c4c3)c2s1 [Compound 17]
< 1000 nM,< 100 nM,< 100 nM,–,–,–,Nc1nc2cc(-c3ccc4nccc(N5CCOCC5)c4c3)ccc2o1 [Compound 28]
< 100 nM,< 100 nM,< 100 nM,–,–,–,Nc1nc2cc(-c3ccc4ncnc(N5CCC(O)CC5)c4c3)ccc2o1 [Compound 29]
< 100 nM,< 100 nM,< 100 nM,–,–,–,Nc1nc2cc(-c3ccc4nccc(-c5cccnc5)c4c3)ccc2o1 [Compound 31]
< 1000 nM,< 100 nM,< 1000 nM,–,–,–,Nc1nc2cc(-c3ccc4nccc(NCCN5CCOCC5)c4c3)ccc2o1 [Compound 33]
< 100 nM,< 100 nM,< 100 nM,–,–,–,Nc1nc2cc(-c3ccc4ncc(-c5cccnc5)n4c3)ccc2o1 [Compound 37]
< 100 nM,< 100 nM,< 100 nM,–,–,–,Nc1nc2cc(-c3ccc4ncc(-c5cn[nH]c5)n4c3)ccc2o1 [Compound 38]
< 100 nM,< 100 nM,< 100 nM,–,–,–,Nc1nc2cc(-c3ccc4ncc(C#CC5CC5)n4c3)ccc2o1 [Compound 39]

# Continued, compound first:
SMILES,IC50 [1],IC50 [2],IC50 ([3]; read-out: PI3K γ IC50),IC50 [4],IC50 [5],IC50 ([3]; read-out: PI3K δ IC50)
Nc1nc2cc(-c3ccc4ncc(N5CCOCC5)n4n3)ccc2o1,> 10000 nM,< 1000 nM,< 10000 nM,< 1000 nM,–,–
CC(=O)N1CCC(n2cnc3ccc(-c4ccc5oc(N)nc5c4)cc3c2=O)CC1,> 10000 nM,< 10000 nM,> 10000 nM,–,–,–
Nc1nc2cc(-c3cn4c(-c5ccncc5)cnc4cn3)ccc2o1,< 10000 nM,< 100 nM,< 1000 nM,< 10000 nM,–,–
Nc1nc2cc(-c3ccc4ncn(C5CCNCC5)c(=O)c4c3)ccc2o1,> 10000 nM,< 100 nM,< 10000 nM,< 10000 nM,–,–
Cn1c(N2CCOCC2)nc2cc(-c3ccc4oc(N)nc4c3)ccc2c1=O,> 10000 nM,< 1000 nM,> 10000 nM,> 10000 nM,–,–
CC(=O)N1CCC(Nc2cnc3ccc(-c4ccc5oc(N)nc5c4)cc3n2)CC1,< 100 nM,< 100 nM,< 100 nM,< 10000 nM,–,–
CC(=O)N1CCN(c2cnc3ccc(-c4ccc5oc(N)nc5c4)cc3n2)CC1,< 100 nM,< 100 nM,< 100 nM,< 100 nM,–,–
CS(=O)(=O)N1CCC(Nc2ncnc3ccc(-c4ccc5oc(N)nc5c4)cc23)CC1,< 100 nM,< 100 nM,< 100 nM,< 1000 nM,–,–
Nc1nc2cc(-c3ccc4ncc(C(=O)N5CC[C@H](F)C5)n4c3)ccc2o1,–,< 100 nM,–,> 10000 nM,> 10000 nM,< 100 nM
Nc1nc2cc(-c3ccc4ncc(C(=O)N5CC[C@H](n6cccn6)C5)n4c3)ccc2o1,–,< 100 nM,–,< 10000 nM,< 1000 nM,< 1000 nM
Nc1nc2cc(-c3ccc4ncc(C(=O)N5CC(n6cccn6)C5)n4c3)ccc2o1,–,< 100 nM,–,> 10000 nM,< 10000 nM,< 1000 nM
Nc1nc2cc(-c3ccc4ncc(C(=O)N5C6CCC5COC6)n4c3)ccc2o1,–,< 100 nM,–,> 10000 nM,< 10000 nM,< 1000 nM
C[C@H]1COCCN1C(=O)c1cnc2ccc(-c3ccc4oc(N)nc4c3)cn12,–,< 100 nM,–,< 10000 nM,> 10000 nM,< 10000 nM
Nc1n[nH]c2cc(-c3ccc4ncc(C(=O)N5CCOCC5)n4c3)ccc12,–,> 10000 nM,–,> 10000 nM,> 10000 nM,> 10000 nM
Nc1noc2cc(-c3ccc4ncc(C(=O)N5CCOCC5)n4c3)ccc12,–,> 10000 nM,–,> 10000 nM,> 10000 nM,> 10000 nM
Nc1nsc2cc(-c3ccc4ncc(C(=O)N5CCOCC5)n4c3)ccc12,–,< 10000 nM,–,> 10000 nM,> 10000 nM,> 10000 nM
Nc1noc2c(-c3ccc4ncc(C(=O)N5CCOCC5)n4c3)cccc12,–,> 10000 nM,–,> 10000 nM,> 10000 nM,> 10000 nM
Nc1nc2cc(-c3ccc4ncc(C(=O)N5CCn6cncc6C5)n4c3)ccc2o1,–,< 100 nM,–,< 1000 nM,> 10000 nM,< 10000 nM
Nc1nc2cc(-c3ccc4ncc(C(=O)N5CC6(C5)OCCO6)n4c3)ccc2o1,–,< 100 nM,–,< 10000 nM,> 10000 nM,< 1000 nM
C[C@@H]1COCCN1C(=O)c1cnc2ccc(-c3ccc4oc(N)nc4c3)cn12,–,< 100 nM,–,< 10000 nM,> 10000 nM,< 1000 nM
Nc1nc2cc(-c3ccc4nccc(-c5cn[nH]c5)c4c3)ccc2o1 [Compound 20],< 100 nM,< 100 nM,–,< 100 nM,–,–
Nc1nc2cc(-c3ccc4nccc(CCN5CCOCC5)c4c3)ccc2o1 [Compound 27],< 10000 nM,< 1000 nM,< 100 nM,–,–,–
CN1CCN(c2cc(-c3ccnc4ccc(-c5ccc6oc(N)nc6c5)cc34)ccn2)CC1 [Compound 30],< 100 nM,< 100 nM,< 100 nM,–,–,–
Nc1nc2cc(-c3ccc4nccc(NC5CCOCC5)c4c3)ccc2o1 [Compound 32],> 10000 nM,< 10000 nM,< 10000 nM,–,–,–
CN1CCC(Oc2ncnc3ccc(-c4ccc5oc(N)nc5c4)cc23)CC1 [Compound 34],< 1000 nM,< 100 nM,< 100 nM,–,–,–
CN1CCN(c2cc(-c3cnc4ccc(-c5ccc6oc(N)nc6c5)cn34)ccn2)CC1 [Compound 43],< 100 nM,< 100 nM,< 100 nM,–,–,–
Nc1nc2cc(-c3ccc4ncc(N5CC(C(=O)N6CCOCC6)C5)nc4c3)ccc2o1 [drawing 442],–,> 10000 nM,–,< 10000 nM,< 10000 nM,< 10000 nM
CN1CCN(C(=O)C2CN(c3cnc4ccc(-c5ccc6oc(N)nc6c5)cc4n3)C2)CC1 [drawing 443],–,> 10000 nM,–,< 10000 nM,< 10000 nM,< 10000 nM
CN1CCN(C(=O)c2cnc3ccc(-c4ccc5oc(N)nc5c4)cn23)CC1 [drawing 570],–,< 1000 nM,–,< 10000 nM,> 10000 nM,< 10000 nM
